The target in the assay is Prostaglandin G/H synthase 2 (Homo sapiens) (UniProt P35354). Nature of the assay: Inhibition of recombinant human COX2 expressed in baculovirus infected Sf21 cells using arachidonic acid as substrate preincubated for 5 mins followed by substrate addition and measured after 5 mins by UV-visible spectrophotometric method.

Here are results for 14 compounds from BindingDB's records for doi:10.1016/j.ejmech.2019.111863 (University of Malakand, 2020).

The structures appear in SMILES notation. pIC50: −log10 of the molar value.

Prostaglandin G/H synthase 2 (Homo sapiens), sequence (P35354 whole entry, looked up): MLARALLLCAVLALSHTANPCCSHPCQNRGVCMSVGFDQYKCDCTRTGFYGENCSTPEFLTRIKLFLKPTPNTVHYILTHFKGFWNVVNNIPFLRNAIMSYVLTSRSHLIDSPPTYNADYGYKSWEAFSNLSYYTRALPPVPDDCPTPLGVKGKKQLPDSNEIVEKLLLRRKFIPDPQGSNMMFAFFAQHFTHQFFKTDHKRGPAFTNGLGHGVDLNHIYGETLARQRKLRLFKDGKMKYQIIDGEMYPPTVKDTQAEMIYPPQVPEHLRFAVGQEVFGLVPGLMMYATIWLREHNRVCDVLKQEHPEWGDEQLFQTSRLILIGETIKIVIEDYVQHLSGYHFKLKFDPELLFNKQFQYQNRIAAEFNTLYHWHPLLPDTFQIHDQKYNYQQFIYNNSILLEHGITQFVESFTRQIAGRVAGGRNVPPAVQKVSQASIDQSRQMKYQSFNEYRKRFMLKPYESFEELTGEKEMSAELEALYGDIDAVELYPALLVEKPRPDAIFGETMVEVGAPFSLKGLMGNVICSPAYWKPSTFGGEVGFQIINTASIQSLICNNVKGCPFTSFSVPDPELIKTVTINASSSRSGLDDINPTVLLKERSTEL

As to `Cc1ccc(C(=O)CC2CC(=O)N(c3ccc(S(N)(=O)=O)cc3)C2=O)cc1` (centres undefined), the pIC50 (in general, −log10 of the IC50, conventionally taken in molar units) was 6.01.

With `NS(=O)(=O)c1ccc(N2C(=O)CC(CC(=O)c3ccc(Cl)cc3)C2=O)cc1` (centres undefined), the pIC50 was 5.20.

In the case of `COc1ccc(C(=O)CC2CC(=O)N(c3ccc(S(N)(=O)=O)cc3)C2=O)cc1` (centres undefined), the pIC50 is 5.68.

On to `NS(=O)(=O)c1ccc(N2C(=O)CC(CC(=O)c3ccccc3)C2=O)cc1` (centres undefined), for which the pIC50 was 5.37.

`NS(=O)(=O)c1ccc(N2C(=O)CC(CC(=O)c3ccccn3)C2=O)cc1` (centres undefined): the pIC50 is 5.05.

In the case of `NS(=O)(=O)c1ccc(N2C(=O)CC(C3CCCCCC3=O)C2=O)cc1` (centres undefined), the negative-log IC50 (pIC50) is 4.68.

`O=C1CCCC1C1CC(=O)N(c2ccccc2)C1=O` (centres undefined): the pIC50 is 4.29.

For the compound `O=C1CCCCCC1C1CC(=O)N(c2ccccc2)C1=O` (centres undefined), the pIC50 was 4.40.

For `O=C1CCOCC1C1CC(=O)N(c2ccccc2)C1=O` (centres undefined), the pIC50 is 4.25.

For the compound `CC1CCC(=O)C(C2CC(=O)N(Cc3ccccc3)C2=O)C1` (centres undefined), the negative-log IC50 (pIC50) was 4.66.

On to `CC1CCC(=O)C(C2CC(=O)N(c3ccccc3)C2=O)C1` (centres undefined), for which the pIC50 is 4.25.

For the compound `O=C1CCCCC1C1CC(=O)N(c2ccc(Br)cc2)C1=O` (centres undefined), the pIC50 is 3.95.

On to `O=C1CCCCC1C1CC(=O)N(Cc2ccccc2)C1=O` (centres undefined), for which the pIC50 is 4.70.

As to `O=C1CCCCC1C1CC(=O)N(c2ccccc2)C1=O` (centres undefined), the pIC50 is 4.35.
